Results: the NIST ThermoML archive (doi:10.1016/j.jct.2006.05.004)

What was measured:
[1] = xn = mol fraction of the nth substance listed; details: 298.15 K, 101 kPa, Liquid
[2] = excess molar enthalpy (molar enthalpy of mixing); xn = mol fraction of the nth substance listed; details: 298.15 K, 101 kPa, Liquid

BrCCCCCBr [1,5-dibromopentane] + CCCC(=O)OC
Details | excess molar enthalpy [kcal/mol] | mass density [kg/m3]
[1], x2 = 0.0754 | – | 1642.8
[1], x2 = 0.1463 | – | 1593.12
[1], x2 = 0.2087 | – | 1548.48
[1], x2 = 0.2699 | – | 1503.86
[1], x2 = 0.3456 | – | 1447.37
[1], x2 = 0.454 | – | 1363.99
[1], x2 = 0.573 | – | 1268.9
[1], x2 = 0.6279 | – | 1223.66
[1], x2 = 0.6902 | – | 1171.2
[1], x2 = 0.7398 | – | 1128.65
[1], x2 = 0.7971 | – | 1078.54
[1], x2 = 0.8961 | – | 989.47
[1], x2 = 0.9526 | – | 937.22
[2], x2 = 0.0788 | 0.015 | –
[2], x2 = 0.1742 | 0.0254 | –
[2], x2 = 0.2762 | 0.0325 | –
[2], x2 = 0.374 | 0.0341 | –
[2], x2 = 0.461 | 0.0309 | –
[2], x2 = 0.5359 | 0.0249 | –
[2], x2 = 0.5693 | 0.0214 | –
[2], x2 = 0.6313 | 0.0152 | –
[2], x2 = 0.7089 | 0.0093 | –
[2], x2 = 0.7917 | 0.00514 | –
[2], x2 = 0.8725 | 0.00258 | –
[2], x2 = 0.946 | 0.00131 | –

BrCCCCCBr [1,5-dibromopentane] + CCCCC(=O)OC
Details | excess molar enthalpy [kcal/mol] | mass density [kg/m3]
[1], x2 = 0.0687 | – | 1640.97
[1], x2 = 0.1285 | – | 1593.96
[1], x2 = 0.1833 | – | 1550.6
[1], x2 = 0.2445 | – | 1501.98
[1], x2 = 0.3066 | – | 1452.48
[1], x2 = 0.4193 | – | 1362.14
[1], x2 = 0.4804 | – | 1312.78
[1], x2 = 0.5408 | – | 1263.86
[1], x2 = 0.601 | – | 1214.87
[1], x2 = 0.6553 | – | 1170.47
[1], x2 = 0.7137 | – | 1122.58
[1], x2 = 0.7698 | – | 1076.41
[1], x2 = 0.822 | – | 1033.27
[1], x2 = 0.8841 | – | 981.75
[2], x2 = 0.0709 | 0.011 | –
[2], x2 = 0.1603 | 0.0179 | –
[2], x2 = 0.2511 | 0.0203 | –
[2], x2 = 0.3436 | 0.0192 | –
[2], x2 = 0.4221 | 0.0158 | –
[2], x2 = 0.4895 | 0.0112 | –
[2], x2 = 0.5345 | 0.00609 | –
[2], x2 = 0.5389 | 0.00564 | –
[2], x2 = 0.5838 | 0.00184 | –
[2], x2 = 0.606 | -0.00203 | –
[2], x2 = 0.6821 | -0.00554 | –
[2], x2 = 0.7721 | -0.00777 | –
[2], x2 = 0.8617 | -0.00657 | –
[2], x2 = 0.943 | -0.000574 | –

BrCCCCCBr [1,5-dibromopentane] + COC(C)=O
Details | excess molar enthalpy [kcal/mol] | mass density [kg/m3]
[1], x2 = 0.0956 | – | 1647.08
[1], x2 = 0.1844 | – | 1601.35
[1], x2 = 0.2647 | – | 1557.01
[1], x2 = 0.3394 | – | 1512.51
[1], x2 = 0.4752 | – | 1423.41
[1], x2 = 0.5958 | – | 1333.86
[1], x2 = 0.6582 | – | 1282.77
[1], x2 = 0.7059 | – | 1241.33
[1], x2 = 0.7548 | – | 1196.56
[1], x2 = 0.8019 | – | 1150.87
[1], x2 = 0.8486 | – | 1102.92
[1], x2 = 0.8874 | – | 1060.93
[1], x2 = 0.9243 | – | 1019.18
[1], x2 = 0.9638 | – | 972.17
[2], x2 = 0.1045 | 0.0536 | –
[2], x2 = 0.2048 | 0.0886 | –
[2], x2 = 0.2959 | 0.115 | –
[2], x2 = 0.3795 | 0.13 | –
[2], x2 = 0.454 | 0.137 | –
[2], x2 = 0.5171 | 0.137 | –
[2], x2 = 0.5731 | 0.133 | –
[2], x2 = 0.622 | 0.127 | –
[2], x2 = 0.685 | 0.116 | –
[2], x2 = 0.7322 | 0.103 | –
[2], x2 = 0.7812 | 0.0893 | –
[2], x2 = 0.8296 | 0.0734 | –
[2], x2 = 0.874 | 0.0585 | –
[2], x2 = 0.9245 | 0.0386 | –
[2], x2 = 0.9655 | 0.0173 | –

BrCCCCCBr [1,5-dibromopentane] + COC=O
Details | excess molar enthalpy [kcal/mol] | mass density [kg/m3]
[1], x2 = 0.1109 | – | 1653.22
[1], x2 = 0.2235 | – | 1607
[1], x2 = 0.3094 | – | 1567.09
[1], x2 = 0.3956 | – | 1522.56
[1], x2 = 0.4606 | – | 1485.39
[1], x2 = 0.5307 | – | 1441.42
[1], x2 = 0.5985 | – | 1394.16
[1], x2 = 0.6548 | – | 1350.94
[1], x2 = 0.7035 | – | 1310.4
[1], x2 = 0.753 | – | 1265.54
[1], x2 = 0.7889 | – | 1230.37
[1], x2 = 0.8347 | – | 1181.99
[1], x2 = 0.9065 | – | 1097.57
[1], x2 = 0.9653 | – | 1017.86
[1], x2 = 0.9733 | – | 1006.52
[2], x2 = 0.1086 | 0.101 | –
[2], x2 = 0.2259 | 0.174 | –
[2], x2 = 0.336 | 0.227 | –
[2], x2 = 0.4363 | 0.255 | –
[2], x2 = 0.5163 | 0.265 | –
[2], x2 = 0.5848 | 0.264 | –
[2], x2 = 0.64 | 0.254 | –
[2], x2 = 0.6892 | 0.241 | –
[2], x2 = 0.7311 | 0.225 | –
[2], x2 = 0.7667 | 0.207 | –
[2], x2 = 0.8146 | 0.18 | –
[2], x2 = 0.8709 | 0.14 | –
[2], x2 = 0.9225 | 0.0935 | –
[2], x2 = 0.9675 | 0.046 | –

BrCCCCCCBr [1,6-dibromohexane] + CCC(=O)OC
Details | excess molar enthalpy [kcal/mol] | mass density [kg/m3]
[1], x2 = 0.0903 | – | 1557.49
[1], x2 = 0.1731 | – | 1517.27
[1], x2 = 0.254 | – | 1475.55
[1], x2 = 0.3276 | – | 1435.11
[1], x2 = 0.3987 | – | 1393.7
[1], x2 = 0.4603 | – | 1355.72
[1], x2 = 0.5254 | – | 1313.37
[1], x2 = 0.5807 | – | 1275.39
[1], x2 = 0.6388 | – | 1233.34
[1], x2 = 0.695 | – | 1190.53
[1], x2 = 0.7429 | – | 1152.05
[1], x2 = 0.7914 | – | 1111.32
[1], x2 = 0.838 | – | 1070.17
[1], x2 = 0.8789 | – | 1032.36
[1], x2 = 0.9195 | – | 993.3
[1], x2 = 0.9621 | – | 950.1
[2], x2 = 0.0951 | 0.0356 | –
[2], x2 = 0.1915 | 0.0572 | –
[2], x2 = 0.2814 | 0.0727 | –
[2], x2 = 0.3659 | 0.0818 | –
[2], x2 = 0.4423 | 0.0858 | –
[2], x2 = 0.5073 | 0.0845 | –
[2], x2 = 0.5644 | 0.0809 | –
[2], x2 = 0.6136 | 0.076 | –
[2], x2 = 0.6648 | 0.067 | –
[2], x2 = 0.7136 | 0.0588 | –
[2], x2 = 0.7663 | 0.0488 | –
[2], x2 = 0.817 | 0.0397 | –
[2], x2 = 0.8647 | 0.0308 | –
[2], x2 = 0.9137 | 0.0207 | –
[2], x2 = 0.9606 | 0.0103 | –
